Earlier results, collected in patent US20070122456A1, “Nicotine and Cocoa Powder Compositions” (priority 2001, published 2007).

Settings: intravenous infusion; smokers and non-smokers similarly

For `CN1CCCC1c1cccnc1` (stereo not shown) [nicotine], the “increase of resting metabolic rate” value is given as 6.5%.
